Data as given in patent US11331269B2, “Methods and compositions targeting lung microbiota and its responding immune pathways for lung cancer treatment” (Massachusetts Institute of Technology, priority 2018, dated 2022).

Assays:
[1] = test system: bacterial abundance in the gut; test: Fecal bacterial load by 16S rDNA-based qPCR; type: in vivo, mouse; conditions: SPF KP mice, metronidazole alone in drinking water
Experimental: Fecal pellets were collected from the colon at the time of tissue harvest. BALF and fecal samples were processed for DNA isolation using a previously established protocol (Palm, et al., Cell. 158(5):1000-1010 (2014); Turnbaugh, et al., Nature. 457(7228):480-4 (2009)). […] E. coli genomic DNA was used as a standard, with samples at 1, 0.1, 0.01, and 0.001 ng per reaction used to create a standard curve.

[2] = test system: IL-17 producing γδ T cells; test: Flow cytometry of IL-17 producing γδ T cells in tumor-bearing lung; type: in vivo, mouse; conditions: KP mice, antibiotics in drinking water
Experimental: Mice were injected retro-orbitally with a PE-CF594 conjugated anti-CD45 antibody (30-F11, BD Bioscience) 2 minutes prior to euthanasia to label the immune cells in the circulation. Lungs were collected, cut into small pieces, and digested with 125 U/mL collagenase IV (Worthington Biochemical) and 40 U/mL DNase I (Roche) for 30 minutes at 37° C. Dissociated lung tissue was then filtered with a 100 μm cell strainer. Spleen and lymph node samples were ground and passed through a 100 μm cell strainer. After blocking FcgRIII/II with an anti-CD16/CD32 mAb (eBioscience), single cell suspensions were stained with the following antibodies: CD45.2 (104), CD45.1 (A20), Ly6G (1A8), CD11b (M1/70), TCRβ (H57-597), TCRγδ (GL3 or UC7-13D5), CD3 (17A2), CD4 (RM4-5), CD8 (53-6.7), Vγ1 (Vg1.1, 2.11), Vγ4 (Vγ2, UC3-10A6), IFN-γ (XMG1.2), IL-17A (TC11-18H10.1), TNF-α (MP6-XT22), IL-17F (ebio18F10), CD44 (IM7), CD27 (LG.3A10), CD69 (H1.2F3), PD-1 (29F. 1A12), PD-L1 (10F.9G2), T-bet (eBio4B10), RORγt (B2D), PLZF (Mags.21F7) and Ki67 (B56) purchased from eBioscience, BD or Biolegend. […] Flow cytometry was performed on the LSR II or LSRFortessa (BD), and data were analyzed by the FlowJo software (Treestar). […]
Flow cytometry and FACS was performed as described above in Example 3. […] Flow cytometry was performed on the LSR II or LSRFortessa (BD), and data were analyzed by the FlowJo software (Treestar). […]

[3] = test system: IL-17A; test: IL-17A ELISA in BALF or serum of KP mice; type: in vivo, mouse; conditions: antibiotics in drinking water
Experimental: IL-17 levels in serum or bronchoalveolar lavage fluid were measured using a mouse IL-17A ELISA kit (eBioscience) according to the manufacturer's instructions.
IL-17 levels were measured using a mouse IL-17A ELISA kit (eBioscience) according to the manufacturer's instructions.
IL-17A levels were measured using a mouse IL-17A ELISA kit (eBioscience) according to the manufacturer's instructions.

[4] = test system: lung adenocarcinoma in KP mice; test: Tumor development (tumor burden/grade by histology) in autochthonous KP GEM model of lung adenocarcinoma; conditions: SPF KP mice, metronidazole alone (1 g/L) in drinking water starting 5 weeks post tumor initiation (FIG. 2E)
From the text: The genetically-engineered mouse (GEM) model of human LUAD has previously been described (DuPage, et al.). In this model, the mice harbor conditional alleles of Kras^LSL-G12D and p53^flox/flox (KP mice). Upon intratracheal infection with adenoviral vectors expressing the Cre-recombinase under the control of the Sftpc promoter, oncogenic KrasG12D is activated and the tumor suppressor p53 is deleted in lung epithelial cells to induce lung adenoma and adenocarcinoma.
Germ-free KP mice were housed in gnotobiotic isolators, which were sampled every 2 weeks and confirmed negative for bacterial and fungal contaminants by culture, fecal Gram stain, and PCR using universal 16S rRNA primers. […]
Tumor-bearing lung lobes and a portion of the spleen were fixed in 4% paraformaldehyde overnight and embedded in paraffin. […] Digitally scanned images of H&E or Ki67-stained slides were created with the Aperio ScanScope AT2 at 20× magnification and analyzed with the Aperio's WebScope software. For tumor burden quantification, tumor regions were outlined and the percentage of tumor area relative to total lung area was calculated for each mouse. For Ki67 index, tumor cells were classified based on the intensity of the nuclear Ki67 staining from 0 to 3+ by using a built-in Nuclear algorithm in the Webscope, and the percentage of nuclei with intense nuclear staining (3+) in total nuclei was calculated. […]

[5] = test system: KP tumor-derived cell lines; test: In vitro cell proliferation of tumor cell lines derived from primary lung tumors of KP mice; type: cell-based, mouse; conditions: live cells 72 hours post treatment
Experimental: Tumor cell lines were derived from primary lung tumors of KP mice, and maintained in DMEM medium (Gibco) supplemented with 10% FBS (Sigma). Cells were serum-starved for 24 hours (1% FBS) before treated with recombinant human amphiregulin (Sigma-Aldrich) or recombinant mouse IL-22 (R&D Systems) at the indicated dose, or left untreated as controls. The number of live cells was determined 72 hours post treatment by counting the Trypan Blue (Gibco) negative cells or through the CellTiter-Glo Luminescent Cell Viability Assay (Promega) according to the manufacturer's instructions.

Molecule: Cc1ncc([N+](=O)[O-])n1CCO [metronidazole]
- overall bacterial abundance in the gut [1]: without substantially reducing the overall bacterial abundance in the gut
- abundance of IL-17 producing γδ T cells in the tumor-bearing lung [2]: dramatically decreased
- IL-17A levels in the BALF or serum [3]: lower IL-17A levels
- tumor growth in the lung (tumor burden) [4]: effectively suppressed tumor growth in the lung

B1: recombinant amphiregulin: recombinant human amphiregulin (Sigma-Aldrich), EGFR ligand (protein, UniProt P15514 101-187, looked up)
Amphiregulin: SVRVEQVVKPPQNKTESENTSDKPKRKKKGGKNGKNRRNRKKKNPCNAEFQNFCIHGECKYIEHLEAVTCKCQQEYFGERCGEKSMK
- proliferation of KP tumor-derived cell lines ([5]; recombinant human amphiregulin, serum-starved cells): promoted proliferation of KP tumor-derived cell lines in a dose-dependent fashion

B2: recombinant IL-22: recombinant mouse IL-22 (R&D Systems) (protein, UniProt Q9JJY9 34-179, looked up)
Interleukin-22: LPVNTRCKLEVSNFQQPYIVNRTFMLAKEASLADNNTDVRLIGEKLFRGVSAKDQCYLMKQVLNFTLEDVLLPQSDRFQPYMQEVVPFLTKLSNQLSSCHISGDDQNIQKNVRRLKETVKKLGESGEIKAIGELDLLFMSLRNACV
- tumor cell proliferation in vitro ([5]; recombinant mouse IL-22, serum-starved KP tumor cell lines): stimulated tumor cell proliferation in vitro
